Where a SMILES comes first, the peptide text is derived from it.
Columns and labels:
[1] = tested on: PCNA positive cells in the subventricular zone (SVZ); experiment: Neuroblast proliferation, PCNA positive cells in subventricular zone; type: in vivo, rat; details: 3 days
Description: To carry out these studies, tissues were fixed and embedded in paraffin and sections obtained using standard methods. Coronal sections (6 μm) containing the level of the hippocampus were cut and mounted on chrome-alum-coated slides for staining. The sections were deparaffinized in xylene, […] in a series of ethanol and incubated in 0.1 M phosphate buffered saline (PBS). Primary antibodies against glial fibrillary acidic protein (GFAP) and proliferating cell nuclear antigen (PCNA) were used to mark reactive glial cells and cells undergoing apoptosis and proliferation, respectively. For antigen unmasking (caspase-3 and PCNA staining), sections were heated in 10 mM sodium citrate buffer (pH 6.0) for 1 min at high power. All sections were pretreated with 1% H2O2 in 50% methanol for 30 min to quench the endogenous peroxidase activity. Then either 1.5% normal horse serum or 2.5% normal sheep serum in PBS was applied for 1 h at room temperature to block nonspecific background staining. […] The number of PCNA positive cells was counted in the subventricular zone and the GFAP positive cells was scored in the cerebral cortex. […] The number of PCNA positive cells was counted in the SVZ and the number of cells was then averaged as cells/mm depending on the length of ventricle wall used for counting (FIG. 19A). […]

adult MeCP2+/- mice = experiment: Ocular dominance plasticity, optical imaging (Example 10); type: in vivo, mouse; details: 4 days monocular deprivation, daily i.p.
Description: Adult (>P60) wild type (SVEV or BL6) and MeCP2 (+/−) mutant females (BL6) are used for this experiment. The wild type control group is composed of both wild type littermates of MeCP2+/− females or wild type age matched SVEV females. For monocular deprivation, animals are anesthetized with Avertin (0.016 ml/g) and the eyelids of one eye is sutured for 4 days. Prior to imaging, the suture is removed and the deprived eye re-opened. Only animals in which the deprivation sutures are intact and the condition of the deprived eye appears healthy are used for the imaging session. For G-2-MePE signaling activation, a solution containing G-2-MePE is injected intra-peritoneally (IP) daily for the entire period of deprivation. For the imaging sessions mice are anesthetized with urethane (1.5 g/kg; 20% of the full dosage is administered IP each 20-30 minutes up to the final dosage, 0.02 ml of cloroprothixene 1% is also injected together with the first administration). The skull is exposed and a custom-made plate is glued on the head to minimize movement. The skull is thinned over V1 with a dremel drill and covered with an agarose solution in saline (1.5%) and a glass coverslip. During the imaging session, the animal is constantly oxygenated, its temperature maintained with a heating blanket and the eyes periodically treated with silicone oil; physiological conditions are constantly monitored. […]

fmr1 knockout mice = experiment: Successive alleys test, fmr1 knockout mice; type: in vivo, mouse; details: 100 mg/kg i.p. 28 days
Description: G-2-MePE was administered at the dose of 100 mg/kg i.p. in 0.1 ml saline, once daily for 28 days. Vehicle-treated animals were injected with 0.1 ml saline daily for 28 days. Thereafter, drug or vehicle treatments were stopped and animals were tested on successive days until all tests were completed. Finally, the animals were sacrificed for determining expression of pAkt and pERK
The successive alleys test was used to assess the effects of G-2-MePE on anxiety in the fmr1 KO mice. The apparatus consists of four successive, increasingly anxiogenic, linearly connected alleys (each succeeding alley is painted a lighter colour, has lower walls and/or is narrower than the previous alley). Animals were placed at the closed end of alley 1, facing the end wall. The latency to first enter each alley, the amount of time spent in each alley, and the number of entries into each alley was recorded during a total test time of 300 s.

SMILES: C[C@@]1(C(=O)N[C@@H](CCC(=O)O)C(=O)O)CCCN1C(=O)CN [Example G-2-MePE, Glycyl-L-2-methylprolyl-L-glutamic acid] (HELM PEPTIDE1{G.[C[C@@]1(C(=O)[*:2])CCCN1[*:1]].E}$$$$V2.0)
- number of PCNA positive cells in SVZ ([1]; 9 month old rats, 1.2 mg/kg i.p., p<0.005): significant increase
- number of PCNA positive cells in SVZ ([1]; 18 month old rats, single i.p. 12 mg/kg, vs vehicle p<0.05): significant increase
- ocular dominance plasticity (adult MeCP2+/- mice): reduces the OD plasticity
- pattern of time spent in successive alleys (fmr1 knockout mice): reinstated the normal pattern of behavior

— US20150224164A1, “TREATMENT OF AUTISM SPECTRUM DISORDERS USING GLYCYL-L-2-METHYLPROLYL-L-GLUMATIC ACID” (Neuren Pharmaceuticals Limited, priority 2013, published 2015)
